For one assay, the system named is GDM-1 cells. The experiment in a line: Combination with BCL2 inhibitor ABT-199 in AML cell lines, 4-day cell proliferation assay. Particulars: GDM-1, treatment duration 4 Days; single agent or combination; read-out: Absolute IC50 (cell proliferation). It counts as cell-based. On the procedure:
(§1) On day 1, plate GDM-1 [ATCC®, maintained throughout in GDM-1 assay medium: RPMI-1640 medium/20% heat-inactivated FBS (GIBCO®)] and EOL-1 cells [ATCC®, maintained throughout in EOL-1 assay medium: RPMI-1640 medium/10% heat-inactivated FBS (GIBCO®)] at 4000 and 10000 cells/well (100 μL/well) respectively, in a 96-well assay plate (BD FALCON® 35-3219). Incubate the plates in a 37° C. incubator (5% CO2) for 18-24 hr. On day 2, prepare 2.0% DMSO with assay medium (as indicated above or RPMI-1640/20% heat-inactivated FBS and RPMI-1640/10% FBS for GDM-1 and EOL-1, respectively) and add 100 μL to columns 3-12 in a preparation plate. Prepare test compounds ABT-199 at 10 μM in 2% DMSO and PRMT5 inhibitor Example 1 at 25 μM in 2% DMSO and dispense into wells A2 and B2, respectively, followed by serial dilution (1:3, 10 points) to wells A11 and B11, respectively. For combinational treatment, serially dilute test compound examples at 1:2 in assay medium (as indicated above or RPMI-1640/20% heat-inactivated FBS and RPMI-1640/10% FBS for GDM-1 and EOL-1, respectively) in wells C2-C11 (0.1 μM) to H2-H11, then serially dilute test compound ABT-199 1:3 from C2-H2 (1.0 μM) to C11-H11. […] Incubate plates for 10-15 min at room temperature before reading. Measure luminescence using the PERKIN-ELMER® ENVISION® Multi-Label Reader. […]

Another assay has as its system EOL-1 cells. The experiment in a line: Combination with BCL2 inhibitor ABT-199 in AML cell lines, 7-day cell proliferation assay. It is filed as cell-based. Particulars: EOL-1, treatment duration 7 Days; single agent or combination; read-out: Absolute IC50 (cell proliferation). The method, then: as §1
For another assay, the target named is T1, PRMT5/MEP50 complex (Homo sapiens, UniProt O14744).
T1 construct: FLAG; made in house; host or cells: baculovirus/Sf9 insect cells
T1 sequence (O14744 whole entry): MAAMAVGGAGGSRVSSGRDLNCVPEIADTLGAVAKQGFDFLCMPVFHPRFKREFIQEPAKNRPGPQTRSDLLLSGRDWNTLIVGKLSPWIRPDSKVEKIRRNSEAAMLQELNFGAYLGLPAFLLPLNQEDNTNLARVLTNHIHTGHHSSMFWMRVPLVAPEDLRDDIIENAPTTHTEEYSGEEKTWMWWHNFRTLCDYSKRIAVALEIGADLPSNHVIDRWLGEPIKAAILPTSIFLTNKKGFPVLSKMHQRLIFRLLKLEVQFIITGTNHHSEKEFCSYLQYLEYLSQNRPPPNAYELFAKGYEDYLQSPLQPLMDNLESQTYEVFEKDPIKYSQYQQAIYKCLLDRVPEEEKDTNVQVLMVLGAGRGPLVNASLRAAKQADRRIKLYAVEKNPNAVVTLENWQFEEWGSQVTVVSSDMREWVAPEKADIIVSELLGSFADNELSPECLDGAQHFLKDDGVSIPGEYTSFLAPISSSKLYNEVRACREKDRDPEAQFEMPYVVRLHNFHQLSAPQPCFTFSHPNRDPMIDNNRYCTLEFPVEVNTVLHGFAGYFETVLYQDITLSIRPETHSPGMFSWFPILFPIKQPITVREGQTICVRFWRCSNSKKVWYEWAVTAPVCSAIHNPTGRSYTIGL
T1 sequence (Q9BQA1 whole entry partner): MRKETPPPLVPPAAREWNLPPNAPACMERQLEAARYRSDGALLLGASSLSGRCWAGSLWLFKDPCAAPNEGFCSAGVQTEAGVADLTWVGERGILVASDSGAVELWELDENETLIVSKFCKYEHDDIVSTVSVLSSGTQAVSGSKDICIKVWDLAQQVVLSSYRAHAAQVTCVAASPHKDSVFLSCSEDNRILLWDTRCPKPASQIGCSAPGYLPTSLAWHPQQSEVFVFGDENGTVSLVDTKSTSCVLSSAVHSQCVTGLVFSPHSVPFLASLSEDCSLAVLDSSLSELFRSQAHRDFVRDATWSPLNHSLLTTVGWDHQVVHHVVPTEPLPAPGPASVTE
The experiment in a line: PRMT5/MEP50 SPA Assay. It counts as biochemical. Particulars: Mean ± SEM. An excerpt:
The purpose of this assay is to measure the ability of a test compound to inhibit the enzyme activity of PRMT5 in vitro by inhibiting the catalytic activity of PRMT5/MEP50 complex, indicated by the transfer of radiolabeled methyl-^3H to a substrate peptide derived from the N-terminal sequence of the human histone H4.
Express the PRMT5/MEP50 enzyme complex using a baculovirus/Sf9 system and purify using anti-FLAG affinity chromatography, (essentially as described in preparations by Stephen Antonysamy, Zahid Bonday, Robert M. Campbell, Brandon Doyle, Zhanna Druzina, Tarun Gheyi, Bomie Han, Louis N. Jungheim, Yuewei Qian, Charles Rauch, Marijane Russell, J. Michael Sauder, Stephen R. Wasserman, Kenneth Weichert, Francis S. Willard, Aiping Zhang, and Spencer Emtage; Crystal structure of the human PRMT5:MEP50 complex, Proceedings of the National Academy of Sciences, 2012, Volume 109, pages 17960-17965.) Dilute purified enzyme to a working stock of 6.67 nM in assay buffer (50 mM TRIZMA® preset pH ˜8.5, 1 mM DTT, 0.005% TWEEN® 80 0.01% HSA).
Add enzyme (15 μL/well) to a 384-well assay plate (CORNING® cat. #3706). Add test compounds from a 10 mM DMSO stock solution to the plate as serial dilutions in assay buffer to achieve a final test concentrations ranging from 50.0 μM to 25 nM. Create a reaction mix containing 1 μM Histone H4 biotinylated peptide substrate, H-[…]-biotin (SEQ ID NO: 1), prepared by FastMoc chemistry with an ABI 431 peptide, and 4 μM ^3H-SAM; 15 Ci/mmol, 0.366 mCi/mL, 37 μM, PERKIN-ELMER® cat. # NET155000MC) in assay buffer. To each plate well, add 5 μL of the peptide/^3H-SAM reaction mix to yield final assay conditions of 5 nM enzyme, 1 ^3H-SAM, 250 nM peptide and 50 μM maximum test compound concentration with 0.5% DMSO, at a final volume of 20 μL. Incubate the assay for 2 hr at room temperature. Stop the reaction with the addition of guanidine HCl (5 M, 20 μL, Sigma cat. # G3272).
Suspend strepavidin YSI SPA scintillation beads (PERKIN-ELMER®, #RPNQ0012) at 1 mg/mL in pH ˜8.5 Tris buffer containing 5 M guanidine HCl. To each well, add 20 μL of this bead suspension, agitate the resulting mixtures, and incubate for 1 hr at room temperature prior to measuring their radioactivity, using a microplate liquid scintillation counter as an indication of the formation of methylated peptide product.
Generate raw data from the radioactivity measurement as counts per min (CPM). Employ an uninhibited control (DMSO) and maximum inhibited control (250 μM dehydrosinefungin, (isolated essentially as described in Berry, D. R. & Abbott, B. J. Incorporation of carbon-14-labeled compounds into sinefungin (A9145), a nucleoside antifungal antibiotic. J. Antibiot. 1978 (31) 185-191 and references cited therein)). […]

Assay [1] deals with PRMT5-dependent alternative splicing of MDM4 in A375 melanoma cells. Briefly: MDM4 Exon5/6 qPCR Assay in A375 Tumor Cells. It is filed as cell-based. Particulars: Homo sapiens, A-375, 72 hr, Mean ± SEM. On the procedure: Culture A375 tumor cells (ATCC), a melanoma cancer cell line, to 70%-90% confluence in T150 flasks with the growth medium (DMEM; HYCLONE™ #SH30022 with 10% FBS; GIBCO® 10082-147 or equivalent). Treat the cells with standard trypsin/EDTA treatment for 3 min and aspirate and wash with PBS to release the adherent cells from the culture flask. Seed the cells into a 96 well plate (Costar 3596) at 5000/well in growth medium (90 μL). Incubate the plate overnight at 37° C. and 5% CO2 and treat the cells with test compound at serial dilutions ([…], final DMSO addition of 0.2% yield) for 72 hr. Measure activity relative to maximum (2.0 μM of Example 2 and minimum (0.2% DMSO) controls.
On Day 5 after incubation, remove the medium from the culture plates and wash the cells twice with cold PBS (150 μL/well). Prepare Lysis Working Reagent from the TAQMAN® Gene Expression Cells-to-CT Kit (INVITROGEN™ cat. # AM1729) by dilution of DNAse 1 into Lysis Solution at 1/100. Add Lysis Working Reagent (50 μL/well) to the cell plates, mix well, and incubate at room temperature for 5 min Add kit stop solution (5 μL) to each well, mix the wells, and incubate for 2 min at room temperature. Prepare Reverse Transcriptase Master Mix in the following volume ratios; RT buffer: Nuclease-free water: RT Enzyme at 62.5:31.25:6.25. Add RT mix (48 μL/well) to each well of a 96-well NUNC™ plate (THERMO SCIENTIFIC™ #260860). Add RT mix (20 μL) and each cell lysate sample (5 μL) into a 384 PCR plate (Clear Optical Reaction Plate, cat. #4309849, APPLIED BIOSYSTEMS®) quadrant 1 and add a second addition of RT Mix and cell lysate to quadrant 3. For the RT reaction, seal the plates and then place them in a thermal cycler set at 37° C. for 60 min; 95° C. for 5 min; stop at 4° C. For qPCR, prepare MDM4 exon 5 primers (Life Technologies Hs00967240-ml) and exon 6 primers (Life Technologies Hs00967242-ml) separately in the following volume ratios of RT mix: H2O: exon probe at 10:6:1. Add Exon 5 (17 μL) to odd columns of a 384 PCR plate and add exon 6 (17 μL) to the even columns. Add cDNA (3 μL, from the RT plate) by quadrant stamping to each well of the qPCR plate containing the 17 μL exon primer solution. In this manner, perform qPCR for both exons on cDNAs from a single RT reaction on an individual cell lysate. Seal the plates, spin, and place on a real-time PCR instrument (Life Technologies ViiA7 Real-Time PCR). […]
Retrieve CT data from the real-time PCR reader and perform the following calculations, where “CPD” is the value from compound-treated samples, and “DMSO” is the minimum control sample, using an Excel template: (Exon 6 CT CPD−Exon 6 CT DMSO)−(Exon 5 CT CPD−Exon 5 CT DMSO)=ΔCT 2^(−ΔCT)=Fold Change […]

Another assay deals with Molt 4 cells. Briefly: Xenograft tumor model, acute lymphoblastic leukemia (Molt 4). It counts as in vivo, mouse. Particulars: 60 mg/kg BID for 30 days, oral gavage. On the procedure:
The purpose of this assay is to measure in a mouse model of cancer the reduction in tumor volume in response to test compound administration.
Grow A375 (melanoma) cells in DMEM/High glucose (HYCLONE™ cat. # SH30022) with 10% HI FBS (GIBCO® cat. #10082-147). Grow Will-2 (DLBCL) cells in RPMI 1640 with L-glutamine and 20% heat inactivated FBS. Grow Namalwa (Burkitt's lymphoma) cells (ATCC) in RPMI 1640 media supplemented with L-glutamine, 25 mM HEPES (GIBCO® 22400-089), 1 mM sodium pyruvate and 7.5% FBS. Grow Molt 4 cells in RPMI 1640 with L-glutamine, 25 mM HEPES [GIBCO 22400-089], 1 mM sodium pyruvate, and 10% FBS. Harvest cells and inject subcutaneously onto the rear flank of nude mice (A375: 5×10^6 cells/animal, mixed 1:1 with MATRIGEL®; Will-2; 1×10^7 cells/animal; Namalwa: 2×10^6 cells/animal; Molt 4: : 5×10^6 cells/animal, mixed 1:1 with MATRIGEL®). When tumors are established (approximately 200 mm^3, 7-21 days after implant), randomize animals, and group them into control and test groups. Formulate the test compound in 1% HEC/0.25% TWEEN®-80/0.05% Antifoam. Administer test compound and vehicles by oral gavage. Determine tumor response by tumor volume measurement (caliper) performed twice a week during the course of treatment and report as the percent inhibition of tumor volume versus the vehicle control group.

We go through 2 compounds from patent US9840532B2, “5′-substituted nucleoside compounds” (Eli Lilly and Company, priority 2015, dated 2017).

For orientation: EC50 means the midpoint of the concentration-response curve. A low value points to a more potent agent.

As to ABT-199 [reference compound], the IC50 was found to be 0.007 µM in the assay on GDM-1 cells and 0.03 µM with EOL-1 cells.
At PRMT5/MEP50 complex, `Nc1ncnc2c1ccn2[C@@H]1O[C@H]([C@H](O)c2ccc(Cl)c(OC3CC3)c2)[C@@H](O)[C@H]1O` [Example 4, (2R,3R,4S,5R)-2-(4-aminopyrrolo[2,3-d]pyrimidin-7-yl)-5-[(R)-[4-chloro-3-(cyclopropoxy)phenyl]-hydroxy-methyl]tetrahydrofuran-3,4-diol] came in with an IC50 of 0.0052 µM. In assay [1], this compound registered an EC50 of 1.04 µM. For the same compound, the “percent inhibition of tumor volume versus vehicle” value in the assay on Molt 4 cells is −75%.
